Reference: a melting point compilation (Tetko et al.; mined from patent text by program, amines drawn as free bases though some values may be those of a salt)

Row | Structure (SMILES) | melting point
1 | COc1cc2c(cc1OC)-c1[nH]c3ccc([N+](=O)[O-])cc3c1CC(=O)N2 | > 330 °C
2 | Cc1cc(CC#N)cc(Cc2nc3c(F)c(F)cc(F)c3s2)c1 | 110 to 113 °C
3 | Cn1c(=O)c2c(ncn2Cc2noc(O)n2)n(C)c1=O | 206 to 207 °C
4 | Cc1nc(-c2[nH]c3ccccc3c2C#N)no1 | 209 to 212 °C
5 | CCOc1cc([C@@H]2CC=CC[C@H]2[N+](=O)[O-])ccc1OC (racemic) | 66 to 67 °C
6 | CCCC(N(NC(=O)OC(C)(C)C)C(=O)c1cc(C)cc(C)c1)C(C)(C)C (configuration not stated) | 116 to 118 °C
7 | Cc1nc2c3c(c(C(=O)NN4CC4)cc2n1C)CCC(c1ccccc1)N3 (configuration not stated) | 192 to 193 °C
8 | O=S1(=O)CCCN1CCc1ccncc1 | 70 °C
9 | O=[N+]([O-])c1ccc(NC2CC2)cc1 | 126 to 128 °C
10 | CN1CC(CCCl)Oc2ccc(F)cc2C1=S (configuration not stated) | 135 to 137 °C
11 | CCC(CC)Nc1c([N+](=O)[O-])cc(C#N)c(COC)c1[N+](=O)[O-] | 46 to 49 °C
12 | CC(C)CC(=O)N[C@H]1CC[C@H](CCN2CCN(c3nccc4c3CCO4)CC2)CC1 | 202 °C
13 | NCCCCCC(N)=O | 49 to 50 °C
14 | CCC1(O)CCC2C3CCC4=C(CC=C(OC)C4)C3CCC21C (configuration not stated) | 131 to 134 °C
15 | NC(=O)N(O)Cc1ccco1 | 128 to 131 °C
16 | CN(C=O)c1cc([N+](=O)[O-])cc([N+](=O)[O-])c1 | 93 to 94 °C
17 | CCOCc1nc2c(N)nc3ccccc3c2n1CC(C)(C)CS(=O)(=O)NC | 161 to 163 °C
18 | Nc1cc(Cl)c(F)cc1-c1cccc(Cl)c1 | 58 °C
19 | CCOC(=O)C1CN(CC)c2nc(OC)ncc2C1=O (configuration not stated) | 118 °C
20 | O=C1N(Cc2ccccn2)c2ccccc2C12COc1cc3nccnc3cc12 (configuration not stated) | 232 to 233 °C
21 | N#Cc1ccc2c(c1)S(=O)(=O)N=CN2C1CC1 | 268 to 270 °C

Row | Structure (SMILES) | melting point
22 | CN(C(=O)N1CCCC1)c1cccc2cc(-c3nccs3)[nH]c12 | 182 °C
23 | CCc1cnccc1C[C@@H](O)C(Cl)(Cl)Cl | 132 to 134 °C
24 | CC(=O)Nc1snc(C)c1[N+](=O)[O-] | 210 °C
25 | CN(C(=O)COc1cc(C(F)(F)C(F)(F)F)no1)c1ccccc1 | 88 to 89 °C
26 | CN(C)C(=O)N(C)c1nnc(S(=O)(=O)N(C)C)s1 | 101 to 103 °C
27 | CC1(C)OCC(C(N)=O)CO1 | 132 to 134 °C
28 | Clc1ccc(-c2ncsc2Cn2cncn2)c(Cl)c1 | 120 to 123 °C
29 | COc1cc2c(cc1OC)CNCC2 | 139 to 141 °C
30 | CCCN1CCC(O)(c2cccc(F)c2F)C1 (single isomer, unassigned; (-)) | 95 to 98 °C
31 | CCNC(=O)OCCCCCCCCC1CC2=C(C1)C(=O)C(OC)=C(OC)C2=O | 85 to 86 °C
32 | O=C1NCN(c2ccc(Br)cc2)C12CCN(C1C=CC(c3ccc(F)cc3)(c3ccc(F)cc3)CC1)CC2 (configuration not stated) | 219 to 221 °C
33 | O=C(CSCCCCCCO)c1ccc2[nH]c(=O)[nH]c2c1 | 180 to 181 °C
34 | O=C1NC(=O)C(=Cc2cc(O)c(O)c([N+](=O)[O-])c2)C(=O)N1 | 269 to 272 °C
35 | CCCCCCCCCCCCn1nnc(C(C(=O)O)c2ccccc2)n1 (configuration not stated) | 55 to 57 °C
36 | O=C(Nc1ccccc1)C(CBr)CBr | 143 to 144 °C
37 | N#Cc1ccc(N2C(=N)C3(CCSCC3)NC2=O)cc1C(F)(F)F | 226 to 227 °C
38 | CN(C)/C=C(\C#N)c1cccc(Br)c1 | 102 to 105 °C
39 | O=S1(=O)c2sccc2C=C(CO)N1CCO | 81 to 83 °C
40 | CN1CCC(Oc2c(F)cc3c(=O)c(C(=O)O)cn(C4CC4)c3c2F)CC1 | 166 to 167 °C
41 | CN1CCN(c2ccc3cn[nH]c3n2)CC1 | 196 to 197 °C
42 | CC(O)c1ccc(O)c(Cl)n1 (configuration not stated) | 89 to 92 °C

The remaining lines, values ahead:

Row | melting point | Structure (SMILES)
43 | 122 to 124 °C | Nc1nc2c(c(N3CCN(CCc4ccccc4)CC3)n1)Cc1ccccc1-2
44 | 96 to 104 °C | O=C(O)c1ccc(OCCNC(=O)C2Cc3ccccc3N2S(=O)(=O)c2ccc(-c3cccc(C(F)(F)F)c3)cc2)c(F)c1 (configuration not stated)
45 | 216 to 217 °C | Cc1nc(N2CCN(Cc3ccc(C(F)(F)F)cc3)C2=O)sc1C(N)=O
46 | 93 °C | CC(C)(Cl)C(=O)c1ccc(C(Br)c2ccc(C(=O)C(C)(C)Cl)cc2)cc1
47 | 200 to 201 °C | CC(=O)Nc1nc(CCc2ccc(N)cc2)c(C(=O)NCc2ccccc2)s1
48 | 220 to 222 °C | Cc1nc2ccccc2cc1NC(=O)N1CCN(c2cccc3ccccc23)CC1
49 | 170 to 175 °C | CC1(C)CC(=O)C(=C(O)COc2ccc(Cl)cc2Cl)C(=O)C1
50 | 155 to 159 °C | CC(C)(C)NC(=O)c1ccc2ccccc2c1
51 | 216 to 219 °C | O=c1[nH]nccc1-c1ccccc1
52 | 102 to 106 °C | Cc1cc(-c2cc3cc(OCCNC[C@H](O)COc4ccccc4Cl)ccc3o2)no1
53 | 111 to 113 °C | NCCc1cn(C(c2ccccc2)(c2ccccc2)c2ccccc2)cn1
54 | 166 °C | O=C(O)Cc1ccc(Oc2ccc(CC3SC(=O)NC3=O)cc2)cc1 (configuration not stated)
55 | 296 °C | COc1ccc(-c2nc(C(=O)c3ccc(N)c(C(=O)O)c3)n3ccccc23)cc1
56 | 82.5 to 83.5 °C | COC(CC(=O)c1cccc(Br)c1)C(=O)O (configuration not stated)
57 | 277 °C | Cc1ccc(N2C(=O)C(O)=C(C(=O)c3ccc(OC(F)(F)F)cc3)C2c2ccc(Cn3nccn3)cc2)nn1 (configuration not stated)
58 | 64 to 68 °C | CCCCCCCCCCCCCCCCCCOc1ccc2ccccc2c1
59 | 191 °C | O=c1ncc(Cl)cn1CSc1ccc(Cl)cc1
60 | 100 to 103 °C | O=C(Oc1ccccc1)n1c(C(F)(F)F)nc2c([N+](=O)[O-])cc(C(F)(F)F)cc21
61 | 196 °C | NC(=O)c1nccn1C1Cc2c(cccc2-c2ccccc2)C1=O (configuration not stated)
62 | 124 to 125 °C | CCCC(=O)c1cnc2c(OCCOC)cccc2c1Nc1ccc(F)cc1C

Row | melting point | Structure (SMILES)
63 | 130 to 132 °C | CC(=O)c1ccccc1Nc1c(Cl)ccc(C)c1Cl
64 | 115 to 117 °C | COc1ccc2c(C=O)c(OCc3ccccc3)ccc2c1
65 | 219 to 221 °C | O=S(=O)(CCN1CCOCC1)Nc1cc(C(c2cc(F)ccc2F)S(=O)(=O)c2ccc(Cl)cc2)c(Cl)cn1 (configuration not stated)
66 | 176 °C | O=C(O)C(=O)c1cc2ccccc2s1
67 | 90 to 91 °C | COc1ccc(C2(C#Cc3ccccc3)CCCC(=O)C2)cc1OC1CCCC1 (configuration not stated)
68 | 221 to 226 °C | COc1cc(C(=O)O)ccc1Cc1cn(C)c2ccc(CCNC(=O)N3CCOCC3)cc12
69 | 98 to 100 °C | CC(C)n1nc(C(Br)C(=O)c2ccccc2)ccc1=O (configuration not stated)
70 | 126 to 127 °C | Cc1oc(-c2ccccc2)nc1COc1cc(COc2nn(C)cc2CC(=O)O)ccn1
71 | 125 to 127 °C | COC(=O)c1cc2n(c1)CCc1ccccc1C2=O
72 | 49 to 50 °C | CN(CCO)C(c1ccc(Cl)cc1)c1ccc(Cl)cc1
73 | 53 to 57 °C | CN1CCC2(C)c3cc(C(=O)C(=O)OCc4ccccc4)ccc3N(C)C12 (configuration not stated)
74 | 123 to 124 °C | CC(=O)CC1CN=C(c2cc3cccc(N(C)S(=O)(=O)c4cccs4)c3[nH]2)S1 (configuration not stated)
75 | 227 °C | O=C(CS(=O)Cc1ccc([N+](=O)[O-])cc1)NO (configuration not stated)
76 | 201 °C | O=C(Nc1ccccc1Cl)Oc1ccc2c(c1)CCCN2
77 | 136 to 138 °C | N#CN=C(Nc1cccnc1)NC(NC(=O)c1ccc(Cl)cc1)C(F)(F)F (configuration not stated)
78 | 196 °C | Cc1c(-c2ccc(NC(=O)OCC(C)C)cc2)nc2n1CCc1ccccc1C2OC1CCN(C)CC1 (configuration not stated)
79 | 234 to 236 °C | O=C(O)c1cc(NCCc2ccc([N+](=O)[O-])cc2)ccc1O
80 | 242 to 244 °C | N[C@H](Cc1ccc2ccccc2c1)C(=O)O
81 | 108 to 110 °C | COC(=O)c1ccc(OCCCN2CCC(C(=O)c3nc4ccccc4s3)CC2)cc1
82 | 250 to 252 °C | CCOC(=O)c1cnc(Nc2ccccc2F)[nH]c1=O

Row | melting point | Structure (SMILES)
83 | 122 to 125 °C | COC(=O)C(=C(C)C)N1C(=O)[C@H](N2C(=O)c3ccccc3C2=O)[C@H]1Cl
84 | 132 to 135 °C | CN(C)CCC1CCc2cc(OCc3ccc(O)cc3)ccc2C1 (configuration not stated)
85 | 184 to 185 °C | COC(=O)NS(=O)(=O)c1ccc(NC(=O)COc2ccc(Cl)cc2C)cc1
86 | 104 °C | COCC1CN(c2ccc(OCCCC3(C)OC(COS(=O)(=O)c4ccc(C)cc4)C(COS(=O)(=O)c4ccc(C)cc4)O3)cc2)C(=O)O1 (configuration not stated)
87 | 221 to 224 °C | COc1ccccc1-c1cccc(-n2cnc3cc(C4=NCCN4)ccc32)c1
88 | 50 to 51 °C | Cc1ccc2c(c1C)OCC2c1ccc(C(C)C)cc1 (configuration not stated)
89 | 200 to 202 °C | Oc1ccc2cc(-c3cnc(Cc4ccccc4)o3)ccc2c1
90 | 126 to 127 °C | COc1ccc(Br)c(COc2ccc3ccc(OC)cc3c2Cl)c1
91 | 213 to 215 °C | NS(=O)(=O)c1cc(C(=O)O)cc([N+](=O)[O-])c1Nc1cccc(C(F)(F)F)c1
92 | 115 to 120 °C | CC1(C)C=C(c2ccccn2)c2cc(-c3ccccc3)ccc2OC1
93 | 201 to 202 °C | O=C(Nc1ccc(-c2ccccc2)cc1)c1ccc2n1Cc1ccccc1N(C(=O)COc1ccc(Cl)cc1)C2
94 | 207 to 210 °C | O=C(NCC12CC3CC(CC(C3)C1)C2)c1cc(-c2ccc(Cl)cc2C(=O)O)ccc1Cl
95 | 185 to 187 °C | Cc1c(Sc2ccc(Cl)cc2)c2cc(S(C)(=O)=O)ccc2n1CC(=O)O
96 | 140 to 143 °C | Cc1cccc(C)c1-c1cc(O)c(SCc2ccccc2)c(=O)o1
97 | 121 to 122 °C | CCSC(C)(C)C(=O)CC(=O)Nc1cc(NC(=O)CCCOc2ccc(C(C)(C)CC)cc2C(C)(C)CC)ccc1Cl
98 | 171 to 172 °C | CCO/C(=C\c1ccc(C#N)cc1)C(=O)O
99 | 64 to 72 °C | COc1c2c(c(OC)c(OC)c1OC)CC(CCCCOc1ccc(C(=O)N3CCOCC3)cc1)C2
100 | 95 to 97 °C | CCOC(=O)C(Cc1ccc(Cl)cc1SCc1ccc(OC)cc1)(CC(C)C)C(=O)OCC
101 | 148 to 150 °C | CCOc1cccc(NC(=O)Nc2ccc3c(c2)CCN(C(=O)Nc2ccc(OCCO)cc2Cl)C3)c1
102 | 117 to 118 °C | CCOC(=O)C1CCc2c([nH]c3ccc(C)cc23)C1 (configuration not stated)
